The record followed here is US7795220B2, “Conformationally constrained parathyroid hormones with alpha-helix stabilizers” (The General Hospital Corporation, priority 2003, dated 2010).

Non-standard residues stand in square brackets, D forms with d. Residues, ends and D or L forms follow the SMILES beside them. hArg = N=C(N)NCCCC[C@H](N)C(=O)O; Ac5c = NC1(C(=O)O)CCCC1; Aib = CC(C)(N)C(=O)O

In one experiment the target is T1, hP1R (Homo sapiens, UniProt Q03431).
T1 construct: expressed in transfected cells; host or cells: COS-7, transient transfection (FuGENE 6)
T1 sequence (Q03431 27-593): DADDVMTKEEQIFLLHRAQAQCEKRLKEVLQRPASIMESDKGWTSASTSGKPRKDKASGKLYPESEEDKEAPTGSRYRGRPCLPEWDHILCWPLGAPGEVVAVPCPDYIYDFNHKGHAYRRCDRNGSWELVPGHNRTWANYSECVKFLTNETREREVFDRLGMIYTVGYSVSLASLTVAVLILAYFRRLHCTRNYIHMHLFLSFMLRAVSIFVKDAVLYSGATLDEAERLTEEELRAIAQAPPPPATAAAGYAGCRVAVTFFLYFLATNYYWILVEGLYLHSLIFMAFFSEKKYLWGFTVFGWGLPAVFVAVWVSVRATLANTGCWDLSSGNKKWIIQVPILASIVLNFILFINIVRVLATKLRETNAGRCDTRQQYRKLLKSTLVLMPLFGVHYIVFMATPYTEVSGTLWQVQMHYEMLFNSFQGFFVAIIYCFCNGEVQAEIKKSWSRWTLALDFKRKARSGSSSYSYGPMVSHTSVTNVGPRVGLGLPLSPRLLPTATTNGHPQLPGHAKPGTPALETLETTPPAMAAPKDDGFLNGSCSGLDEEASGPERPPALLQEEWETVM
Kind of experiment: Stimulation of inositol phosphate production / phospholipase C in COS-7 cells. In kind it is cell-based. From the text:
Cell Culture. The cell line HKRK-B28 (Takasu, H., et al., J. Bone Miner. Res. 14:11-20 (1999)) was derived from the porcine kidney cell line, LLC-PK1 by stable transfection with plasmid DNA encoding a recombinant P1R chimera comprised of the opposum P1R from the N-terminus to the mid region of TM3 and the rat P1R from the mid region of TM3 to the C-terminus. The surface density of the P1R in these cells is ˜280,000 receptors per cell. The clonal cell line LdelNt-2 was derived from LLC-PK, cells via stable transfection with a plasmid encoding P1R-delNt, a recombinant human PTH-1 receptor construct in which most of the amino-terminal extracellular domain is deleted. These cells, as well as COS-7 cells and SaOS-2-B10 cells, were cultured at […] in T-75 flasks ([…]) in Dulbecco's modified Eagle's medium (DMEM) supplemented with fetal bovine serum (10%), penicillin G (20 units/ml), streptomycin sulfate (20 μg/ml) and amphotericin B (0.05 μg/ml) in a humidified atmosphere containing 5% CO2. […]
Stimulation of Inositol Phosphate Production. […] The lysate was then applied to an ion exchange column (0.5 mL resin bed) and the total inositol phosphates were eluted as described previously (Berridge, M. J., et al., Biochem. J. 212:473-482 (1983)), and counted in liquid scintillation cocktail.

The target of experiment [1] is T2, P1R (recombinant P1R chimera) in HKRK-B28 cells (UniProt P25107+P25961, A364S/A509S/A517P/A524T/DEL519-521/E344G/G506A/H528S/I365V/I416T/I429T/K402R/K465R/L320I/M408V/N352H/S511P/S523T/T335G/T421L/T487S/V367L/V433I).
T2 construct: the opposum P1R from the N-terminus to the mid region of TM3; the rat P1R from the mid region of TM3 to the C-terminus; expressed in transfected cells
Briefly: biochemical. In kind it is binding, opposum/rat chimera. The conditions noted are these: B28 cells. From the text:
Cell Culture. The cell line HKRK-B28 (Takasu, H., et al., J. Bone Miner. Res. 14:11-20 (1999)) was derived from the porcine kidney cell line, LLC-PK1 by stable transfection with plasmid DNA encoding a recombinant P1R chimera comprised of the opposum P1R from the N-terminus to the mid region of TM3 and the rat P1R from the mid region of TM3 to the C-terminus. The surface density of the P1R in these cells is ˜280,000 receptors per cell. The clonal cell line LdelNt-2 was derived from LLC-PK, cells via stable transfection with a plasmid encoding P1R-delNt, a recombinant human PTH-1 receptor construct in which most of the amino-terminal extracellular domain is deleted. These cells, as well as COS-7 cells and SaOS-2-B10 cells, were cultured at […] in T-75 flasks ([…]) in Dulbecco's modified Eagle's medium (DMEM) supplemented with fetal bovine serum (10%), penicillin G (20 units/ml), streptomycin sulfate (20 μg/ml) and amphotericin B (0.05 μg/ml) in a humidified atmosphere containing 5% CO2. Stock solutions of EGTA/trypsin and antibiotics were from GLBCO; fetal bovine serum was from Hyclone Laboratories (Logan, Utah). COS-7 cells sub-cultured in 24-well plates were transfected with plasmid DNA (200 ng per well) encoding the wild-type human P1R or truncated human P1R deleted for residues (24-181) (Shimizu, M., et al., J. Biol. Chem. 275:21836-21843 (2000)) that was purified by cesium chloride/ethidium bromide density gradient centrifugation, and FuGENE 6 transfection reagent (Roche Indianapolis Ind.) according to the manufacturer's recommended procedure. All cells, in 24-well plates, were treated with fresh media and shifted to 33° C. for 12 to 24 h prior to assay.
Competition Binding. Binding reactions were performed with HKRK-B28 cells or in COS-7 cells in 24-well plates. The cells were rinsed with 0.5 mL of binding buffer, and then treated successively with 100 μL binding buffer, 100 μL of binding buffer containing various amounts of unlabeled competitor ligand, and 100 μL of binding buffer containing ca. 100,000 cpm of ^125I-[Aib^1,3,Nle^8,Gln^10,Har^11,Ala^12,Trp^14,Arg^19,Tyr^21]rPTH(1-21) (SEQ. ID. NO. 36) (ca. 26 fmol; final volume=300 μL). Incubations were 4 to 6 h at 4° C., at which time near equilibrium conditions were attained. Cells were then placed on ice, the binding medium was removed, and the monolayer was rinsed three times with 0.5 mL of cold binding buffer. The cells were subsequently lysed with 0.5 mL 5N NaOH and counted for radioactivity. For each tracer and in each experiment, the non-specific binding was determined as the radioactivity that bound in the presence of the same unlabeled peptide at a concentration of 1 μM, and was ˜1% of total radioactivity added for each tracer. The maximum specific binding (B0) was the total radioactivity bound in the absence of competing ligand, corrected for nonspecific binding, and for each tracer, ranged from 8% to 20% of the total radioactivity added. Nonlinear regression was used to calculate binding IC50 values (see below). Scatchard transformations of homologous competition binding data derived from studies with 26 fmol of ^125I-[Aib^1,3,Nle^8,Gln^10,Har^11,Ala^12,Trp^14, Arg^19,Tyr^21]rPTH(1-21) (SEQ. ID. NO. 36) were employed for estimations of apparent equilibrium dissociation constant (kDapps) and total number of ligand binding sites (Bmax), assuming a single class of binding sites and equal affinities of the iodinated and non iodinated ligand.
Data Calculation. Calculations were performed using Microsoft® Excel. Nonlinear regression analyses of binding and cAMP dose-response data were performed using the four-parameter equation: yp=Min+[(Max−Min)/(1+(IC50/x)^slope)]. The Excel Solver function was utilized for parameter optimization, as described previously (Carter, P. H., et al., Endocrinology 140: 4972-4981 (1999); Bowen, W. P., and Jerman, J. C., Trends in Pharmacol. Sci. 16: 413-417 (1995)). […]

T2 sequence (P25107+P25961 fused with the stated changes): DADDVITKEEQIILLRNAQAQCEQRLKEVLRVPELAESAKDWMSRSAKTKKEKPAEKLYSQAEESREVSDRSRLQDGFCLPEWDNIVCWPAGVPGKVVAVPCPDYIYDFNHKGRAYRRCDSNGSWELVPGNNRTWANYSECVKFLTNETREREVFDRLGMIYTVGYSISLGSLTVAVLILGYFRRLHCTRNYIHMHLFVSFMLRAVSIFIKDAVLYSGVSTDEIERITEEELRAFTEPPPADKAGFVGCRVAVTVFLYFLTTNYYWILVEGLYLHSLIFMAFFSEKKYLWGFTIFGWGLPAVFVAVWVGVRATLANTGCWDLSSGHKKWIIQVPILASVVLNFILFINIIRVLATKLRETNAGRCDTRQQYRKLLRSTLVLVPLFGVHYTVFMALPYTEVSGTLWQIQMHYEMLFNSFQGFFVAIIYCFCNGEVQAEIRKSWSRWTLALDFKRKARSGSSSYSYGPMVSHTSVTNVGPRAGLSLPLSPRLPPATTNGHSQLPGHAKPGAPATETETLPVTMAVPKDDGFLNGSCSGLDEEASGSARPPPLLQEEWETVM

For the compound `CC[C@H](C)[C@H](NC(=O)[C@H](CCC(=O)O)NC(=O)C(C)(C)NC(=O)[C@@H](NC(=O)C1(N)CCCC1)C(C)C)C(=O)N[C@@H](CCC(N)=O)C(=O)N[C@@H](CC(C)C)C(=O)N[C@@H](CCSC)C(=O)N[C@@H](Cc1c[nH]cn1)C(=O)N[C@@H](CCC(N)=O)C(=O)N[C@@H](CCCCNC(=N)N)C(=O)N[C@@H](C)C(=O)N[C@@H](CCCCN)C(=O)N[C@@H](Cc1c[nH]c2ccccc12)C(N)=O` [[Ac5c^1,Aib^3,M]PTH(1-14), [Ac5c^1,Aib^3,Gln^10,Har^11,Ala^12,Trp^14]PTH(1-14)NH2] (H-[Ac5c]V[Aib]EIQLMHQ[hArg]AKW-NH2), on hP1R, the “potency for stimulating phospholipase C relative to [Aib1,3,M]PTH(1-14)” value is 2 fold. Moreover, in experiment [1], the “potency for inhibiting tracer binding relative to [Aib1,3,M]PTH(1-14)” value is listed as 2 fold.
